A short description of series [1]: In-vivo DFS delivery across skin by microneedle plates. Details: species or system Sprague Dawley rats. Particulars: 200 μl of 5 mg/ml DFS bolus, skin sampled after 5 min. As for the experimental part:
A in-vivo test was conducted on Sprague Dawley rates between approximately 230 g-250 g to analyze DFS delivery. […] 200 μl of 5 mg/ml DFS in phosphate buffered saline (PBS) was injected through rats' naked skin with either zeolite microneedles or commercial microneedles in bolus. A negative control consisted of placing excess DFS solution on rats' naked skin. After 5 min, the skins were washed by iced DI water. About 1 mm diameter of skin samples at the injection sites were carefully cut and then weighed in 2 ml centrifuge tubes. Then the skin samples were homogenized in 5 fold PBS buffer by sonication. DFS was extracted from the homogenate by liquid-phase extraction using 500 μl ethyl-acetate for twice. The ethyl-acetate was collected into 1.5 ml centrifuge tubes and then removed under vacuum. The residues were reconstituted by 500 μl ACN:H2O (50:50 w/w ratio) and 200 μl of the reconstituted solution was send for UPLC analysis.

Series [2] is described as follows: In-vitro transdermal delivery across porcine ear skin in vertical diffusion cell (active infusion microneedle patch).
Excerpt: (§1) Porcine ears were freshly obtained from a local slaughter facility, gently washed with running tap water, and chopped into pieces of 50 mm in width. Visual observation was done to check if the skins were free from lesions and infections. Hairs at the back of the ear were carefully removed by clipper. Full thickness skins were obtained using manual-operated dermatome with uniform insertion force and angle. The split skins were cut into discs with 40 mm diameter. The skins were then sprayed and rubbed with 75% ethanol for 1 mm to remove fatty tissues and dirt, followed by DI water washing. Thereafter the skins were blotted with a cellulose-based fiber tissue, such as […] ™, wrapped with aluminum foil, and stored in a −20° C. refrigerator until further use. All prepared porcine skin was used within 2 weeks.
(§2) Vertical diffusion cell was filled with 7 mL phosphate buffered saline (PBS) (137 mM sodium chloride (NaCl), 2.7 mM potassium chloride (KCl), 4.3 mM sodium phosphate dibasic heptahydrate (NaH2PO4.7H2O), and 1.6 mM potassium phosphate monobasic (KH2PO4), pH 7.4) and pre-run at 300 rpm with bath circulator for 1 hr to achieve 37° C. Porcine skin was thawed by soaking in PBS at room temperature for 1 hr. After that, the porcine skin was mounted between the receptor and the donor cell of the diffusion system. The stratum corneum of the skin faced the donor cell while the dermis side faced the receptor cell. The skin was handled with care to avoid bubble accumulation on the receptor side of the skin. Diclofenac sodium (DFS) or insulin (70 μL) and DI water (500 μL) were loaded into the drug and water reservoirs, respectively, through the resealable injector ports. A patch, such as those described in previous examples, was gently shaken to ensure water could make contact with the dried hydrogel inside. The patch was applied on the donor side of the skin by finger force, with the help of adhesive tapes to keep the patch in position. Samples (1 mL) were withdrawn from the receptor cell every hour with immediate replenishment of the same volume of fresh PBS. The tests were done with patches bonded with commercial (ME-C-600), zeolite (SSM-O-150), or plastic (P-O-500) microneedles.
(§3) Quantification of DFS in samples was done by analysis under ultra-performance liquid chromatography (UPLC). With a gradient method A:B=70%:30% to 10%: 90% in 4 min (A=0.02% trifluoroacetic acid (TFA) in H2O; B=0.02% TFA in acetonitrile (ACN)), flow rate=0.45 mL/min with detection wavelength=210 nm. […] Negative control is achieved by direct pipetting of a known amount of drug on skin for diffusion.
(§4) A plastic microneedle plate was used in this experiment.
For series [3] the following is noted: pig, 8 h, pH 7.4.
Excerpt: as §1, §2, §3, §4
For series [4], the system named is blood glucose level. Briefly: In-vivo insulin delivery, blood glucose level. Further details: species or system Sprague Dawley rats. The note with it: after 1 hour. As for the experimental part: For all zeolite microneedle, commercial microneedle, and the positive control, a significant pharmaceutical effect could be observed after 1 hour, when the blood glucose level of the rats dropped by about 4-fold from the original level and was subsequently maintained for some hours.

The conditions of series [5]: insulin administration by the transdermal patch, compared with other groups.
Description: An in vivo test of insulin delivery was conducted on Sprague Dawley rats weighing between approximately 230 g-250 g, which were fasting overnight, but free to access water one day before the test. The rats were anesthetized by a ketamine/xylazine cocktail, and the abdominal hairs were completely removed by a hair clipper followed by chemical depilatory creams. About 80 μl of 100 IU/ml human insulin solution was transdermal administrated to individual rats by either zeolite microneedles or the same type of commercial microneedles used in Example 12. Fixed dosed 0.1 IU insulin solution or saline was also subcutaneously injected by syringes to simulate the positive and negative control respectively. The rats' blood glucose levels were recorded by a portable glucose meter (Roche, Accu-Chek Performa Nano) for 6 hours at different time intervals. For the first 4 hours 200 μl of blood samples were also collected by squeezing the rats' tails. The blood samples were centrifuge at 13000 G for 3 min and then the blood plasma was pipetted into 1.5 ml centrifuge tubes and stored under −80° C. for blood insulin test. The blood insulin levels were tested by an ELISA kit (Mercodia, Human Insulin ELISA). […]
In pharmacokinetics, the administration efficiency of a certain drug is commonly evaluated by its Cmax and Tmax. […]
The subject of series [6] is blood glucose level. Particulars: micro-needles and pressure force (10 psi); cited from earlier work.

On to `O=C(O)Cc1ccccc1Nc1c(Cl)cccc1Cl` [DFS, Diclofenac sodium], for which, in series [1] (commercial microneedle), the “increase of transdermal DFS delivery compared with the negative control” value is roughly 5 times. The “increase in delivery amount compared with the commercial microneedle” value in series [1] (zeolite microneedle) was “more than 3 fold”. Further, the DFS delivery rate entry in series [2] (zeolite microneedle plate adhered to the patch, versus negative control) is reported as “improves delivery rates”. Further, in series [3], the “Percentage of DFS delivered” value is given as 17.6±3.2% and the “Total amount of drug delivered” value worked out at 60.9±6.1%.
With insulin, the “drop of blood glucose level from the original level” value in the series on blood glucose level [4] (commercial microneedle, about 80 μl of 100 IU/ml human insulin) is listed as “about 4 fold”; in the series with blood glucose level [4] (positive control: 0.1 IU insulin subcutaneously injected by syringe), “about 4 fold”; with blood glucose level [4] (zeolite microneedle, about 80 μl of 100 IU/ml human insulin), “about 4 fold”. Besides, the “insulin delivery rate profile” value in series [2] (active infusion patch with zeolite and commercial microneedles) is “linear insulin delivery rate”. In series [2] (non-porated pig skin, skin patch test (negative control), 70 μL of 4.5 mg/mL insulin), the “insulin permeated across skin” value is “less than 5%”. For the same compound, the “Cmax (blood insulin level)” value in series [5] was “highest”. For the same compound, the “Tmax (blood insulin level)” value in series [5] was “fastest”. The “lowering of normalized blood glucose level” value in the series on blood glucose level [6] was 70%.
